What was measured:
[1] = blood parameters in high-fat diet-fed mice; format: in vivo; settings: HF diet-fed C57BL/6J mice; for blood glucose / circulating TG (triglyceride) levels: week 12; for circulating TG (triglyceride) levels: vs HF group; for Blood profiles: FFA (plasma free fatty acid) / Blood profiles: Insulin / Blood profiles: Leptin / Blood profiles: TC (total cholesterol): mean ± SE, n=9
Procedure: For part 2, C57BL/6J mice (4 weeks old) were obtained from the National Laboratory Animal Breeding and Research Center. The mice were divided randomly into two groups after 7 days acclimation. […] The compositions of the experimental diets are given in previous studies. After 8 weeks, the high-fat treated mice were randomly subdivided into four groups (n=9) including PTA1 (0.06 g/kg/day), PTA2 (0.12 g/kg/day) or rosiglitazone (Rosi; 1% methylcellulose, 10 mg/kg body weight) (GlaxoSmithKline) or vehicle and treated by oral gavage one time per day from the 9th to 12th weeks, while the mice were still on the high-fat diet, whereas the CON and high-fat control (HF) mice were treated with vehicle only. At the end, food was withheld from the animals (from 10 p.m. to 10 a.m.). The next day, the mice were sacrificed for blood and tissue collection and analysis. Livers, skeletal muscles, and white adipose tissues (WATs) (including epididymal, mesenteric, and retroperitoneal WAT) were weighed and excised, followed by immediate freezing, and kept at −80° C. for target gene analysis. Heparin (30 units/mL) (Sigma) was added to blood samples. Plasma samples were collected within 30 min by centrifugation at 1600 g for 15 min at 4° C. Plasma was obtained for insulin and leptin assay.
Blood samples (0.8 mL) were collected from the retro-orbital sinus of fasted mice, and the glucose level was analyzed by the glucose oxidase method (model 1500; Sidekick Glucose Analyzer; YSI Inc., Yellow Springs, Ohio, USA). Plasma triglycerides (TG), total cholesterol (TC), and free fatty acids (FFA) were measured using commercial assay kits according to the manufacturer's directions (Triglycerides-E test, Cholesterol-E test, and FFA-C test, Wako Pure Chemical, Osaka, Japan). The levels of insulin and leptin in blood were analyzed by ELISA using a commercial assay kit according to the manufacturer's directions (mouse insulin ELISA kit, Sibayagi, Gunma, Japan; and mouse leptin ELISA kit, Morinaga, Yokohama, Japan).

[2] = system: epididymal WAT and liver tissue; test: histopathology of epididymal WAT and liver tissue; format: in vivo; settings: HF diet-fed C57BL/6J mice; for hepatocellular ballooning mean score: grade 0 none, 1 a few cells, 2 many cells
From the text: For part 2, C57BL/6J mice (4 weeks old) were obtained from the National Laboratory Animal Breeding and Research Center. The mice were divided randomly into two groups after 7 days acclimation. The control (CON) group (n=9) was fed a low-fat diet (diet 12450B, Research Diets, Inc., New Brunswick, N.J., USA), whereas the experimental group was fed a 45% high-fat diet (diet 12451, Research Diets, Inc.) for 12 weeks. The compositions of the experimental diets are given in previous studies. After 8 weeks, the high-fat treated mice were randomly subdivided into four groups (n=9) including PTA1 (0.06 g/kg/day), PTA2 (0.12 g/kg/day) or rosiglitazone (Rosi; 1% methylcellulose, 10 mg/kg body weight) (GlaxoSmithKline) or vehicle and treated by oral gavage one time per day from the 9th to 12th weeks, while the mice were still on the high-fat diet, whereas the CON and high-fat control (HF) mice were treated with vehicle only. At the end, food was withheld from the animals (from 10 p.m. to 10 a.m.). The next day, the mice were sacrificed for blood and tissue collection and analysis. Livers, skeletal muscles, and white adipose tissues (WATs) (including epididymal, mesenteric, and retroperitoneal WAT) were weighed and excised, followed by immediate freezing, and kept at −80° C. for target gene analysis. Heparin (30 units/mL) (Sigma) was added to blood samples. Plasma samples were collected within 30 min by centrifugation at 1600 g for 15 min at 4° C. Plasma was obtained for insulin and leptin assay.
Small pieces of epididymal WAT and liver tissue were fixed with formalin (200 g/kg) neutral buffered solution and embedded in paraffin. Sections (8 μm) were cut and stained with hematoxylin and eosin. For microscopic examination, a microscope (Leica, DM2500) was used, and the images were taken using a Leica Digital camera (DFC-425-C).

PEPCK = test: semiquantitative RT-PCR, liver PEPCK mRNA; format: in vivo, C57BL/6J mice; settings: HF diet-fed mice, normalized to GAPDH, vs HF group
From the text: (§1) For part 2, C57BL/6J mice (4 weeks old) were obtained from the National Laboratory Animal Breeding and Research Center. The mice were divided randomly into two groups after 7 days acclimation. The control (CON) group (n=9) was fed a low-fat diet (diet 12450B, Research Diets, Inc., New Brunswick, N.J., USA), whereas the experimental group was fed a 45% high-fat diet (diet 12451, Research Diets, Inc.) for 12 weeks. The compositions of the experimental diets are given in previous studies. […]
(§2) Total RNA from the liver tissue was isolated with a Trizol reagent (Molecular Research Center, Inc., Cincinnati, Ohio, USA) according to the manufacturer's directions. The integrity of the extracted total RNA was examined by 2% agarose gel electrophoresis, and the RNA concentration was determined by ultraviolet (UV) light absorbency at 260 and 280 nm (spectrophotometer U-2800A, Hitachi). […] The relative density of the band was evaluated using AlphaDigiDoc 1201 software (Alpha Innotech Co., San Leandro, Calif., USA). All of the measured PCR products were normalized to the amount of cDNA of GAPDH in each sample. […]

11β-HSD1 = test: semiquantitative RT-PCR, liver 11β-HSD1 mRNA; format: in vivo, C57BL/6J mice; settings: HF diet-fed mice, normalized to GAPDH, vs HF group
From the text: as §1, §2

FAS = test: semiquantitative RT-PCR, liver FAS mRNA; format: in vivo, C57BL/6J mice; settings: HF diet-fed mice, normalized to GAPDH, vs HF group
From the text: as §1, §2

[3] = PTA1 0.06 g/kg/day oral gavage 4 weeks
[4] = PTA2 0.12 g/kg/day oral gavage 4 weeks

In the case of `C[C@@H]1CC[C@]2(C(=O)O)CC[C@]3(C)C(=CC[C@@H]4[C@@]5(C)C[C@@H](O)[C@H](O)C(C)(C)[C@@H]5CC[C@]43C)[C@@H]2[C@]1(C)O` [PTA, tormentic acid], the blood glucose [1, 3] is reported as 96.3 mg/dL, the “circulating TG (triglyceride) levels” value [1, 3] is reported as “decreased” and the “Blood profiles: FFA (plasma free fatty acid)” value [1, 3] is reported as 2.15 ± 0.35 mequiv/L. For the same compound, the “Blood profiles: Insulin” value [1, 3] was 101.7 ± 15.2 μU/mL, the Blood profiles: Leptin [1, 3] was 2.35 ± 0.092 ng/mL and the “Blood profiles: TC (total cholesterol)” value [1, 3] was 167.0 ± 6.1 mg/dL. The blood glucose [1, 4] was 94.8 mg/dL, the “circulating TG (triglyceride) levels” value [1, 4] was “decreased” and the “Blood profiles: FFA (plasma free fatty acid)” value [1, 4] was 1.88 ± 0.29 mequiv/L. For the same compound, the “Blood profiles: Insulin” value [1, 4] was 73.9 ± 11.8 μU/mL, the Blood profiles: Leptin [1, 4] was 1.78 ± 0.094 ng/mL and the “Blood profiles: TC (total cholesterol)” value [1, 4] was 153.7 ± 6.9 mg/dL. The “average area of adipocytes (epididymal WAT)” value [2, 3] was 2380.9±108.6 μm2, the “hepatocellular ballooning mean score” value [2, 3] was 1.0±0.2 and the “average area of adipocytes (epididymal WAT)” value [2, 4] was 2243.2±100.9 μm^2. For the same compound, the “hepatocellular ballooning mean score” value [2, 4] was 0.7±0.2, the “mRNA level of PEPCK in liver” value (PEPCK; PTA1 0.06 g/kg/day 4 weeks) was “significantly decrease” and the “mRNA level of PEPCK in liver” value (PEPCK; PTA2 0.12 g/kg/day 4 weeks) was “significantly decrease”. The “mRNA level of 11β-HSD1 in liver” value (11β-HSD1; PTA1 0.06 g/kg/day 4 weeks) was “significantly decrease”, the “mRNA level of 11β-HSD1 in liver” value (11β-HSD1; PTA2 0.12 g/kg/day 4 weeks) was “significantly decrease” and the “mRNA level of FAS in liver” value (FAS; PTA1 0.06 g/kg/day 4 weeks) was “significantly decrease”. The “mRNA level of FAS in liver” value (FAS; PTA2 0.12 g/kg/day 4 weeks) was “significantly decrease”.
